# Results published in publication PMC4965013, “Open Source Drug Discovery with the Malaria Box Compound Collection for Neglected Diseases and Beyond” (PLoS Pathogens, 2016).
# pEC50, pIC50: −log10 of the molar value. Like-named read-outs stand apart in the source and are kept apart here.
# Legend:
# [1] = system: HIV-1 JR-FL or HIV-1 NL4-3 pseudoviruses; assay: HIV-1 pseudovirus infection luciferase; type: cell-based; settings: 10µM
# Method: (§1) Columns FK-GB, Moore group (data presented first in this paper). HIV and HIV-producing cell lines, toxicity and viral suppression. […] MMV compounds were incubated with HIV-1 JR-FL or HIV-1 NL4-3 pseudoviruses and U87-CD4-CCR5 or U87-CD4-CXCR4 cells (obtained through the NIH AIDS Reagent Program, Division of AIDS, NIAID, NIH: U87 CD4+CCR5+ Cells from Dr. HongKui Deng and Dr. Dan R. Littman) respectively for 3 days. Cells were assayed for infection by luciferase production (Bright-Glo Luciferase Substrate, Promega) and cell viability by MTT assay. […] MMV compounds were next incubated with HIV-1 JR-FL or HIV-1 NL4-3 viruses and U87-CD4-CCR5 or U87-CD4-CXCR4 cells respectively for 7 days. Cell supernatants were assayed for viral production by p24 ELISA [153] and cell viability by MTT assay. […] DMSO (5%) was completely toxic to all cells (based on visual inspection) and served as the positive control for MTT assays.
# [2] = system: HIV-1 JR-FL or HIV-1 NL4-3 viruses; assay: HIV-1 viral production p24 ELISA; type: cell-based; settings: 10µM
# Method: as §1
# [3] = system: P. falciparum 3D7 trophozoites; assay: Metabolomic fingerprint profiling LC-MS; type: cell-based, Plasmodium falciparum; set-up: UDP-D-glucose / ADP-D-glucose: unit not given here; settings: for Acetyllysine / N-acetyl-L-ornithine / N-carbamoyl-L-aspartate / NADPH / dAMP / dCMP / dTDP / dTMP / dTTP / dihydroorotate / orotate / DLH / DLS/SDL/SID / PD / PEE / PVNF / 3-phosphoglycerate / ADP-D-glucose / ATP / CDP / D-sedoheptulose-1/7-phosphate / FAD / GMP / NAD+ / NADP+ / Octoluse Bisphosphate / Pyroglutamic acid / UDP-D-glucose / UDP-D-glucuronate / UDP-N-acetyl-glucosamine / UDP / UMP / UTP / a-ketoglutarate / citrate/isocitrate / cytidine / dATP / dGMP/AMP / fumarate / glucose-1/6-phosphate / glycerate / guanine / guanosine / hypoxanthine / indole / inosine / nicotinate / ornithine / phosphoenolpyruvate / pyruvate / ribose-phosphate / sarcosine/alanine / sn-glycerol-3-phosphate / succinate/methylmalonic acid / uridine / xanthosine: S2 Table Metabolomics; for Acetyllysine: metabolite Acetyllysine; for N-acetyl-L-ornithine: metabolite N-acetyl-L-ornithine; for N-carbamoyl-L-aspartate: metabolite N-carbamoyl-L-aspartate; for NADPH: metabolite NADPH; for dAMP: metabolite dAMP; for dCMP: metabolite dCMP; for dTDP: metabolite dTDP; for dTMP: metabolite dTMP; for dTTP: metabolite dTTP; for dihydroorotate: metabolite dihydroorotate; for orotate: metabolite orotate; for DLH: peptide DLH; for DLS/SDL/SID: peptide DLS/SDL/SID; for PD: peptide PD; for PEE: peptide PEE; for PVNF: peptide PVNF; for 3-phosphoglycerate: metabolite 3-phosphoglycerate; for ADP-D-glucose: metabolite ADP-D-glucose; for ATP: metabolite ATP; for CDP: metabolite CDP; for CDP / D-sedoheptulose-1/7-phosphate / GMP / Octoluse Bisphosphate / UDP / UMP / UTP / citrate/isocitrate / dGMP/AMP / fumarate / glucose-1/6-phosphate / glycerate / guanine / guanosine / inosine / pyruvate / sarcosine/alanine / succinate/methylmalonic acid / uridine / xanthosine: change in metabolite level after compound treatment; for D-sedoheptulose-1/7-phosphate: metabolite D-sedoheptulose-1/7-phosphate; for FAD: metabolite FAD; for GMP: metabolite GMP; for NAD+: metabolite NAD+; for NADP+: metabolite NADP+; for Octoluse Bisphosphate: metabolite Octoluse Bisphosphate; for Pyroglutamic acid: metabolite Pyroglutamic acid; for UDP-D-glucose: metabolite UDP-D-glucose; for UDP-D-glucuronate: metabolite UDP-D-glucuronate; for UDP-N-acetyl-glucosamine: metabolite UDP-N-acetyl-glucosamine; for UDP: metabolite UDP; for UMP: metabolite UMP; for UTP: metabolite UTP; for a-ketoglutarate: metabolite a-ketoglutarate; for citrate/isocitrate: metabolite citrate/isocitrate; for cytidine: metabolite cytidine; for dATP: metabolite dATP; for dGMP/AMP: metabolite dGMP/AMP; for fumarate: metabolite fumarate; for glucose-1/6-phosphate: metabolite glucose-1/6-phosphate; for glycerate: metabolite glycerate; for guanine: metabolite guanine; for guanosine: metabolite guanosine; for hypoxanthine: metabolite hypoxanthine; for indole: metabolite indole; for inosine: metabolite inosine; for 2_3-Diphosphoglyceric acid / 4-phosphopantothenate / 6-phospho-D-gluconate / FMN / IMP / Pyrophosphate / Sedoheptoluse bisphosphate / cyclic-AMP / glutathione disulfide / lactate / myo-inositol: metabolite level change after treatment; for nicotinate: metabolite nicotinate; for ornithine: metabolite ornithine; for phosphoenolpyruvate: metabolite phosphoenolpyruvate; for pyruvate: metabolite pyruvate; for ribose-phosphate: metabolite ribose-phosphate; for sarcosine/alanine: metabolite sarcosine/alanine; for sn-glycerol-3-phosphate: metabolite sn-glycerol-3-phosphate; for succinate/methylmalonic acid: metabolite succinate/methylmalonic acid; for uridine: metabolite uridine; for xanthosine: metabolite xanthosine
# [4] = system: bovine Babesia and equine Babesia and Theileria parasites; assay: Babesia and Theileria fluorescence-based assay, all four species; type: cell-based, B. bovis, B. bigemina, T. equi, B. caballi
# P. falciparum = assay: EC50 listed in S2 Table Metabolomics (used to set the concentration tested); type: cell-based; settings: Plasmodium falciparum, read-out: EC50_nM
compound,measurement,setting,value
"Cc1cn([C@H]2C[C@H](N=[N+]=[N-])[C@@H](CO)O2)c(=O)[nH]c1=O [AZT, reference compound]","viral infection by luciferase, positive control",[1],completely blocked viral infection
same,"viral infection by p24 production, positive control",[2],completely blocked viral infection
C[n+]1c2ccccc2nc2ccc(NCCO)cc21 [MMV396693],Acetyllysine,[3],-0.1505
same,N-acetyl-L-ornithine,[3],-0.01449
same,N-carbamoyl-L-aspartate,[3],0.2036
same,NADPH,[3],1.101
same,dAMP,[3],0.3768
same,dCMP,[3],-0.245
same,dTDP,[3],-0.2826
same,dTMP,[3],-0.3704
same,dTTP,[3],0.008069
same,dihydroorotate,[3],0.3914
same,orotate,[3],-0.3502
same,DLH,[3],0.01259
same,DLS/SDL/SID,[3],0.07661
same,PD,[3],0.009709
same,PEE,[3],-0.05476
same,PVNF,[3],0.1478
same,3-phosphoglycerate,[3],0.5809
same,ADP-D-glucose,[3],0.23
same,ATP,[3],0.04335
same,CDP,[3],-0.06362
same,D-sedoheptulose-1/7-phosphate,[3],-0.05616
same,FAD,[3],0.2669
same,GMP,[3],0.08605
same,NAD+,[3],0.2129
same,NADP+,[3],0.2138
same,Octoluse Bisphosphate,[3],0.3676
same,Pyroglutamic acid,[3],0.1161
same,UDP-D-glucose,[3],0.1757
same,UDP-D-glucuronate,[3],0.2718
same,UDP-N-acetyl-glucosamine,[3],0.1832
same,UDP,[3],-0.3369
same,UMP,[3],-0.448
same,UTP,[3],0.03764
same,a-ketoglutarate,[3],-0.1814
same,citrate/isocitrate,[3],1.401
same,cytidine,[3],0.9119
same,dATP,[3],0.0739
same,dGMP/AMP,[3],0.007618
same,fumarate,[3],0.1883
same,glucose-1/6-phosphate,[3],-0.01569
same,glycerate,[3],0.2787
same,guanine,[3],0.244
same,guanosine,[3],0.1378
same,hypoxanthine,[3],0.1496
same,indole,[3],0.3367
same,inosine,[3],0.5603
same,2_3-Diphosphoglyceric acid,[3],0.305
same,4-phosphopantothenate,[3],0.02035
same,6-phospho-D-gluconate,[3],0.201
same,FMN,[3],0.1776
same,IMP,[3],0.1162
same,Pyrophosphate,[3],0.4038
same,Sedoheptoluse bisphosphate,[3],0.06738
same,cyclic-AMP,[3],0.09405
same,glutathione disulfide,[3],0.1827
same,lactate,[3],0.3349
same,myo-inositol,[3],-0.009161
same,nicotinate,[3],0.1527
same,ornithine,[3],0.2843
same,phosphoenolpyruvate,[3],0.01034
same,pyruvate,[3],-0.1004
same,ribose-phosphate,[3],0.7027
same,sarcosine/alanine,[3],0.6024
same,sn-glycerol-3-phosphate,[3],0.3061
same,succinate/methylmalonic acid,[3],0.6812
same,uridine,[3],0.1028
same,xanthosine,[3],0.2966
same,"anti-Babesia and anti-Theileria hits, IC50 in words",[4],nanomolar IC50s
same,mean selectivity indices (SI),[4],greater than 230
same,pIC50,"[4]; Babesia, read-out: IC50s for both bovine Babesia and equine Babesia and Theileria parasites",6.12 to 7.37
same,pEC50,P. falciparum,6.53
CN(C)c1ccc(C(O)(c2ccc(N(C)C)cc2)c2ccc(N(C)C)cc2)cc1 [MMV665941],Acetyllysine,[3],-1.017
same,N-acetyl-L-ornithine,[3],-0.7597
same,N-carbamoyl-L-aspartate,[3],-0.9197
same,NADPH,[3],0.7329
same,dAMP,[3],-0.1528
same,dCMP,[3],-0.8045
same,dTDP,[3],-0.3693
same,dTMP,[3],-0.3724
same,dTTP,[3],0.2892
same,dihydroorotate,[3],-0.7761
same,orotate,[3],-0.6971
same,DLH,[3],-0.3436
same,DLS/SDL/SID,[3],-0.7858
same,PD,[3],-0.9616
same,PEE,[3],-0.896
same,PVNF,[3],-0.9967
same,3-phosphoglycerate,[3],-0.2513
same,ADP-D-glucose,[3],-0.2022
same,ATP,[3],-0.1582
same,CDP,[3],-0.3781
same,D-sedoheptulose-1/7-phosphate,[3],-0.2425
same,FAD,[3],-0.1824
same,GMP,[3],-1.314
same,NAD+,[3],-0.1192
same,NADP+,[3],0.08054
same,Octoluse Bisphosphate,[3],-0.4622
same,Pyroglutamic acid,[3],-0.1275
same,UDP-D-glucose,[3],-0.08523
same,UDP-D-glucuronate,[3],-0.09688
same,UDP-N-acetyl-glucosamine,[3],-0.3177
same,UDP,[3],-0.7488
same,UMP,[3],-1.259
same,UTP,[3],-0.2947
same,a-ketoglutarate,[3],-0.5688
same,citrate/isocitrate,[3],-0.2269
same,cytidine,[3],0.5361
same,dATP,[3],0.2904
same,dGMP/AMP,[3],-0.7364
same,fumarate,[3],-0.9732
same,glucose-1/6-phosphate,[3],-0.5386
same,glycerate,[3],-0.5934
same,guanine,[3],-0.3347
same,guanosine,[3],-0.8332
same,hypoxanthine,[3],-0.2046
same,indole,[3],-0.2792
same,inosine,[3],-0.51
same,2_3-Diphosphoglyceric acid,[3],-0.09061
same,4-phosphopantothenate,[3],-0.6586
same,6-phospho-D-gluconate,[3],-0.08067
same,FMN,[3],0.05461
same,IMP,[3],-0.2283
same,Pyrophosphate,[3],-0.1004
same,Sedoheptoluse bisphosphate,[3],-0.2916
same,cyclic-AMP,[3],0.03248
same,glutathione disulfide,[3],-0.3448
same,lactate,[3],-0.6265
same,myo-inositol,[3],-1.035
same,nicotinate,[3],0.06813
same,ornithine,[3],-0.116
same,phosphoenolpyruvate,[3],-0.1381
same,pyruvate,[3],-0.3661
same,ribose-phosphate,[3],-0.3246
same,sarcosine/alanine,[3],-0.4581
same,sn-glycerol-3-phosphate,[3],-0.06155
same,succinate/methylmalonic acid,[3],-1.567
same,uridine,[3],-0.4322
same,xanthosine,[3],-0.131
same,"anti-Babesia and anti-Theileria hits, IC50 in words",[4],nanomolar IC50s
same,pEC50,P. falciparum; EC50 used for Factor_XEC50 in metabolomics,6.59
